Reference: patent publication US20250195511A1, “INDAZOLE DERIVATIVES USEFUL AS INHIBITORS OF NOD-LIKE RECEPTOR PROTEIN 3” (Merck Sharp & Dohme LLC, priority 2023, published 2025)

The compounds below were run on NLRP3 inflammasome (assay: NLRP3 inflammasome activation: ASC-SPECK formation in gramicidin-stimulated THP-1 cells). Conditions: Homo sapiens, THP-1, inhibition of ASC SPECK formation; PMA-treated human monocytic THP-1 cells, compound 1 h before 12.5 μg/ml gramicidin, 3-hour treatment.
Format: cell-based
From the text: Activation of the canonical NLRP3 inflammasome requires two steps, priming and activation. A priming signal such as a pathogen activated molecular patterns (PAMPs) or danger-activated molecular patterns (DAMPs) are recognized by Toll-like receptors leads to nuclear factor kappa B (NF-KB)-mediated signaling. […] The second step is activation which induces oligomerization of NLRP3 and subsequent assembly of NLRP3, apoptosis-associated speck-like protein containing a CARD (ASC), and procaspase-1 into an inflammasome complex. This triggers the transformation of procaspase-1 to caspase-1, and the production and secretion of mature IL-1β and IL-18 (Kim et al., J. Inflamm. 2015, 12, 41; Ozaki et al., J. Inflamm. Res. 2015, 8, 15-27; Rabeony et al., Eur. J. Immunol. 2015, 45, 2847). During inflammasome complex assembly, the oligomerization of NLRP3 triggers the nucleation of ASC and an event commonly referred to as “ASC SPECK” formation, as it is identified in the cell as a discrete puncta within the cell after staining and visualization of ASC using common immunocytochemical methods.
The ability of compounds to inhibit NLRP3 inflammasome activation was determined in vitro by monitoring formation of the ASC-SPECK in human monocytic THP-1 cells after stimulation. THP-1 cells (ATCC catalog #TIB-202) were maintained in complete growth media containing Roswell Park Memorial Institute RPMI (ATCC catalog #30-2001), 10% heat inactivated fetal bovine serum, 1× penicillin/streptomycin and 0.05 mM 2-mercaptoethanol. At the start of the assay, undifferentiated THP-1 cells were plated at a density of 20,000 cells per well in a 384-well plate (Poly-D-lysine coated Cell Carrier Ultra microplate, Perkin Elmer catalog #6057500) in complete growth media supplemented with 10 ng/ml phorbol 12-myristate 13-acetate (PMA; Sigma catalog #P8139), and then incubated overnight. The next day, media was replaced with assay media (RPMI (Gibco catalog #11875-093), 0.01% bovine serum albumin (BSA)). Compounds were serially diluted in DMSO and then added to wells one hour prior to the addition of 12.5 μg/ml Gramicidin (Enzo Lifescience, catalog #ALX-350-233-M005). All incubations were carried out at 37° C. (5% CO2/95% air). Following a 3-hour treatment with gramicidin, cells are fixed with 4% paraformaldehyde and stored at 4° C. until immunofluorescence staining.
Immunofluorescence staining: Anti-ASC antibody (MBL catalog #D086-3) was desalted and labeled with Alexa 488 antibody labeling kit (Thermo catalog #A20181) prior to use as described below. After fixation, the following steps were carried out at rt. Cells were first permeabilized with 0.3% polyethylene glycol tert-octylphenyl ether (Triton X-100) in phosphate-buffered saline (PBS) for 15 minutes and then incubated in blocking buffer containing 5% goat serum, 0.3% polyethylene glycol sorbitan monolaurate (Tween-20) and 0.03% sodium azide in PBS for 1 hour. Cells were stained with a mixture of ASC-Alexa 488 antibody (diluted 1:200 in blocking buffer) and nuclear stain DRAQ5 (1:5000 in blocking buffer, Thermo catalog #62251) in blocking buffer for 1 hour. Following a wash with 0.3% polyethylene glycol sorbitan monolaurate (Tween-20) in PBS, plates were imaged with an Opera Phenix High Content Screening System. The number of DRAQ5 positive cells containing ASC SPECKS were quantified in each well.
Data analysis: EC50 values were calculated by standard curve-fitting analysis using an internally developed program in TIBCO Spotfire software.
Work on CCOCOc1cc(C(F)(F)F)cc(C)c1-c1cnc2c([C@@H](C)O)n(C[C@@H]3CC(=O)N(C4CC4)C3)nc2n1 (single isomer, unassigned) [Example 115, (R or S)-1-cyclopropyl-4-((6-(2-(ethoxymethoxy)-6-methyl-4-(trifluoromethyl)phenyl)-3-((R or S)-1-hydroxyethyl)-2H-pyrazolo[3,4-b]pyrazin-2-yl)methyl)pyrrolidin-2-one] yielded an EC50 of 287 nM.
Work on CCOCOc1cc(C(F)(F)F)cc(C)c1-c1cnc2c([C@@H](C)O)n(C[C@H]3CC(=O)N(C4CC4)C3)nc2n1 (single isomer, unassigned) [Example 114, (S or R)-1-cyclopropyl-4-((6-(2-(ethoxymethoxy)-6-methyl-4-(trifluoromethyl)phenyl)-3-((R or S)-1-hydroxyethyl)-2H-pyrazolo[3,4-b]pyrazin-2-yl)methyl)pyrrolidin-2-one] yielded an EC50 of 57 nM.
For Cc1cc(C(F)(F)F)cc(O)c1-c1cnc2cn(C3CC4CCC(C3)O4)nc2n1 (stereo not shown) [Example 45, 3-methyl-2-[2-(8-oxabicyclo[3.2.1]octan-3-yl)pyrazolo[3,4-b]pyrazin-6-yl]-5-(trifluoromethyl)phenol], the EC50 was 70 nM.
Cc1cc(C(F)(F)F)cc(O)c1-c1cnc2c(C)n(C3CCC(=O)N(C)C3)nc2n1 (single isomer, unassigned) [Example 106, (S or R)-5-(6-(2-hydroxy-6-methyl-4-(trifluoromethyl)phenyl)-3-methyl-2H-pyrazolo[3,4-b]pyrazin-2-yl)-1-methylpiperidin-2-one] was tested, and the EC50 was 191 nM.
Cc1cc(C(F)(F)F)cc(O)c1-c1cnc2cn([C@@H]3CCS(=O)(=O)C3)nc2n1 [Example 30, 2-[2-[(3R)-1,1-dioxothiolan-3-yl]pyrazolo[3,4-b]pyrazin-6-yl]-3-methyl-5-(trifluoromethyl)phenol] was tested, and the EC50 was 407 nM.
CCOCOc1cc(C(F)(F)F)cc(C)c1-c1cnc2c([C@H](C)O)n(C[C@@H]3CC(=O)N(C4CC4)C3)nc2n1 (single isomer, unassigned) [Example 116, (R or S)-1-cyclopropyl-4-((6-(2-(ethoxymethoxy)-6-methyl-4-(trifluoromethyl)phenyl)-3-((S or R)-1-hydroxyethyl)-2H-pyrazolo[3,4-b]pyrazin-2-yl)methyl)pyrrolidin-2-one] was tested, and the EC50 was 28 nM.
Work on Cc1cc(C(F)(F)F)cc(O)c1-c1cnc2cn(C34CC(CC#N)(C3)C4)nc2n1 [Example 46, 2-[3-[6-[2-hydroxy-6-methyl-4-(trifluoromethyl)phenyl]pyrazolo[3,4-b]pyrazin-2-yl]-1-bicyclo[1.1.1]pentanyl]acetonitrile] yielded an EC50 of 213 nM.
With COCC12CC(n3cc4ncc(-c5c(C)cc(C(F)(F)F)cc5O)nc4n3)(C1)C2 [Example 37, 2-[2-[3-(methoxymethyl)-1-bicyclo[1.1.1]pentanyl]pyrazolo[3,4-b]pyrazin-6-yl]-3-methyl-5-(trifluoromethyl)phenol] the EC50 was 220 nM.
With Cc1cc(C(F)(F)F)cc(O)c1-c1cnc2cn(CC3(C#N)CCC3)nc2n1 [Example 13, 1-((6-(2-hydroxy-6-methyl-4-(trifluoromethyl)phenyl)-2H-pyrazolo[3,4-b]pyrazin-2-yl)methyl)cyclobutane-1-carbonitrile] the EC50 was 264 nM.
Cc1cc(C(F)(F)F)cc(O)c1-c1cnc2nn([C@H]3C[C@H](F)C3)nc2n1 [Example 121, 2-(2-((1R,3R)-3-fluorocyclobutyl)-2H-[1,2,3]triazolo[4,5-b]pyrazin-5-yl)-3-methyl-5-(trifluoromethyl)phenol] gave an EC50 of 411 nM.
Compound Cc1cc(C(F)(F)F)cc(O)c1-c1cnc2cn(C3(C)CCOC3)nc2n1 (single isomer, unassigned) [Example 78, (S or R)-3-methyl-2-(2-(3-methyltetrahydrofuran-3-yl)-2H-pyrazolo[3,4-b]pyrazin-6-yl)-5-(trifluoromethyl)phenol] has an EC50 of 198 nM.
Cc1cc(Cl)cc(O)c1-c1cnc2cn([C@H]3[C@@H]4COC[C@@H]43)nc2n1 [Example 57, 2-(2-((1R,5S,6R)-3-oxabicyclo[3.1.0]hexan-6-yl)-2H-pyrazolo[3,4-b]pyrazin-6-yl)-5-chloro-3-methylphenol] gave an EC50 of 60 nM.
With Cc1cc(Cl)cc(O)c1-c1cnc2cn([C@@H]3[C@@H]4COC[C@@H]43)nc2n1 [Example 56, 2-(2-((1R,5S,6S)-3-oxabicyclo[3.1.0]hexan-6-yl)-2H-pyrazolo[3,4-b]pyrazin-6-yl)-5-chloro-3-methylphenol] the EC50 was 42 nM.
Work on Cc1cc(C(F)(F)F)cc(O)c1-c1cnc2cn([C@H]3CC[C@H](C#N)CC3)nc2n1 [Example 40, (1R,4R)-4-(6-(2-hydroxy-6-methyl-4-(trifluoromethyl)phenyl)-2H-pyrazolo[3,4-b]pyrazin-2-yl)cyclohexane-1-carbonitrile] yielded an EC50 of 81 nM.
With Cc1cc(C(F)(F)F)cc(O)c1-c1cnc2cn(C34COC(C3)C4)nc2n1 [Example 17, 2-(2-(2-oxabicyclo[2.1.1]hexan-4-yl)-2H-pyrazolo[3,4-b]pyrazin-6-yl)-3-methyl-5-(trifluoromethyl)phenol] the EC50 was 55 nM.

Same assay, conditions: inhibition of ASC SPECK formation; PMA-treated human monocytic THP-1 cells, compound 1 h before 12.5 μg/ml gramicidin, 3-hour treatment
Cc1cc(C(F)(F)F)cc(O)c1-c1cnc2cn(C3CCc4nnc(C(F)(F)F)n4C3)nc2n1 (single isomer, unassigned) [Example 70, (R or S)-3-methyl-5-(trifluoromethyl)-2-(2-(3-(trifluoromethyl)-5,6,7,8-tetrahydro-[1,2,4]triazolo[4,3-a]pyridin-6-yl)-2H-pyrazolo[3,4-b]pyrazin-6-yl)phenol] showed an EC50 of 12 nM.
Cc1cc(C(F)(F)F)cc(O)c1-c1cnc2cn(C34COCC3C4)nc2n1 (single isomer, unassigned) [Example 84, 2-(2-((1S,5S or 1R,5R)-3-oxabicyclo[3.1.0]hexan-1-yl)-2H-pyrazolo[3,4-b]pyrazin-6-yl)-3-methyl-5-(trifluoromethyl)phenol] gave an EC50 of 60 nM.
Work on Cc1cc(C(F)(F)F)cc(O)c1-c1cnc2c(C)n(C3CCC(=O)NC3)nc2n1 (single isomer, unassigned) [Example 109, (S or R)-5-(6-(2-hydroxy-6-methyl-4-(trifluoromethyl)phenyl)-3-methyl-2H-pyrazolo[3,4-b]pyrazin-2-yl)piperidin-2-one] yielded an EC50 of 279 nM.
In the case of Cc1cc(C(F)(F)F)cc(O)c1-c1cnc2cn([C@H]3CCO[C@@H](C)C3)nc2n1 (single isomer, unassigned) [Example 94, 3-methyl-2-(2-((2R,4R or 2S,4S)-2-methyltetrahydro-2H-pyran-4-yl)-2H-pyrazolo[3,4-b]pyrazin-6-yl)-5-(trifluoromethyl)phenol], the EC50 is reported as 92 nM.
With CCN1CC(Cn2cc3ncc(-c4c(C)cc(C(F)(F)F)cc4O)nc3n2)CC1=O (single isomer, unassigned) [Example 67, (S or R)-1-ethyl-4-((6-(2-hydroxy-6-methyl-4-(trifluoromethyl)phenyl)-2H-pyrazolo[3,4-b]pyrazin-2-yl)methyl)pyrrolidin-2-one] the EC50 was 7 nM.
For Cc1cc(C(F)(F)F)cc(O)c1-c1cnc2cn(C34CC3COC4(C)C)nc2n1 (single isomer, unassigned) [Example 76, 2-(2-((1R,5R or 1S,5S)-2,2-dimethyl-3-oxabicyclo[3.1.0]hexan-1-yl)-2H-pyrazolo[3,4-b]pyrazin-6-yl)-3-methyl-5-(trifluoromethyl)phenol], the EC50 was 99 nM.
Cc1cc(C(F)(F)F)cc(O)c1-c1cnc2cn(C3(C)CCOC3)nc2n1 (single isomer, unassigned) [Example 79, (R or S)-3-methyl-2-(2-(3-methyltetrahydrofuran-3-yl)-2H-pyrazolo[3,4-b]pyrazin-6-yl)-5-(trifluoromethyl)phenol] gave an EC50 of 173 nM.
